Data set [1] concerns the target T1, human recombinant α4β2 nicotinic receptors (Homo sapiens, UniProt P17787+P43681).
T1 construct: expressed in transfected cells; host or cells: SH-EP1
Briefly: Radioligand binding, human recombinant α4β2 in SH-EP1 cellular membranes. How it is done: Preparation of membranes from SH-EP1/human α4β2 clonal cells: Cell pellets from 40 150 mm culture dishes were pooled, and homogenized by Polytron (Kinematica GmbH, Switzerland) in 20 milliliters of ice-cold preparative buffer. […] The resulting pellet was re-suspended in 20 mL of ice-cold preparative buffer and stored at −20° C.
Assay. On the day of the assay, the frozen membranes were thawed and spun at 48,000×g for 20 min. The supernatant was decanted and discarded. The pellet was resuspended in Dulbecco's phosphate buffered saline (PBS, Life Technologies) pH 7.4 and homogenized with the Polytron for 6 seconds. Protein concentrations were determined using a Pierce BCA Protein Assay Kit, with bovine serum albumin as the standard (Pierce Chemical Company, Rockford, Ill.).
Incubation was terminated by rapid filtration on a multi-manifold tissue harvester (Brandel, Gaithersburg, Md.) using GF/B filters presoaked in 0.33% polyethyleneimine (w/v) to reduce non-specific binding. Tissue was rinsed 3 times in PBS, pH 7.4. […] Filters were then counted to determine radioactivity bound to the membranes by liquid scintillation counting (2200CA Tri-Carb LSC, Packard Instruments, 50% efficiency or Wallac Trilux 1450 MicroBeta, 40% efficiency, Perkin Elmer).
Data were expressed as disintegrations per minute (DPMs). […]

Data set [2] has as its target T2, human native ganglion-type nicotinic receptors (likely α3β4) (Homo sapiens, UniProt P30926+P32297).
T2 construct: human native ganglion-type nicotinic receptors (likely α3β4); endogenous in cells; host or cells: SH-SY5Y
Nature of the data set: [3H]epibatidine binding, SH-SY5Y membranes.

Data set [3] has as its target T3, human native muscle receptors (Homo sapiens, UniProt P02708+P07510+Q07001).
T3 construct: human native muscle-type nicotinic receptors (likely α1β1γδ); endogenous in cells; host or cells: TE-671 (TE671/RD)
Briefly: Ca flux assay, TE-671 cells. It is filed as cell-based. An excerpt:
Activation of muscle-type nAChRs was established on the human clonal line TE671/RD, which is derived from an embryonal rhabdomyosarcoma (Stratton et al., Carcinogen 10: 899 (1989)). These cells express receptors that have pharmacological (Lukas, J. Pharmacol. Exp. Ther. 251: 175 (1989)), electrophysiological (Oswald et al., Neurosci. Lett. 96: 207 (1989)), and molecular biological profiles (Luther et al., J. Neurosci. 9: 1082 (1989)) similar to the muscle-type nAChR.
(R)-3-((E)-2-(Pyrrolidin-3-yl)vinyl)-5-(tetrahydropyran-4-yloxy)pyridine or a salt thereof was tested in ganglion and muscle-type nicotinic receptor ion flux assays to examine functional selectivity.

The subject of data set [4] is rats with scopolamine-induced cognitive deficits. Nature of the data set: Radial arm maze (RAM), scopolamine-induced deficit. The following applies: 0.03 mg/kg or 0.1 μmol/kg p.o. 0.5 h prior to test trial, scopolamine 0.3±0.1 mg/kg s.c. It is filed as in vivo, rat. How it is done: Working memory was assessed in a radial arm maze (RAM) task. The RAM task was conducted using an automated eight-arm maze (Med Associates, Inc.) The maze was located on a circular table approximately 88 cm above the floor with overhead lighting in a dedicated testing ambient and large, high contrast geometric shapes on the wall. Furthermore, additional visual cues were located at the hub entry into each arm, above each the food hopper and on the ceiling. The central platform measured 30.5 cm in diameter with eight arms (9 cm W×45.7 cm L×16.8 cm H) radiating from it. Automatic guillotine doors were located at the entrance to each runway with a pellet receptacle at the distal end of each arm. White noise will be audible during all training and testing procedures. Activity on the maze was monitored by tracking quantitative activity (generated by infra-red beam breaks) on the computer interface and monitor screen.
Following the baseline assessment and after re-attainment test session criterion, animals were assessed for their sensitivity to chemically-induced cognitive impairment using the muscarinic antagonist scopolamine (0.2-0.4 mg/kg; s.c.). A dose of scopolamine was determined for each animal based on the minimum dose that produced significant and reliable cognitive impairment. […]

The target of another data set is CYP2C9 (Homo sapiens, UniProt P11712). It is filed as in vitro ADME.
CYP2C9, sequence (P11712 whole entry): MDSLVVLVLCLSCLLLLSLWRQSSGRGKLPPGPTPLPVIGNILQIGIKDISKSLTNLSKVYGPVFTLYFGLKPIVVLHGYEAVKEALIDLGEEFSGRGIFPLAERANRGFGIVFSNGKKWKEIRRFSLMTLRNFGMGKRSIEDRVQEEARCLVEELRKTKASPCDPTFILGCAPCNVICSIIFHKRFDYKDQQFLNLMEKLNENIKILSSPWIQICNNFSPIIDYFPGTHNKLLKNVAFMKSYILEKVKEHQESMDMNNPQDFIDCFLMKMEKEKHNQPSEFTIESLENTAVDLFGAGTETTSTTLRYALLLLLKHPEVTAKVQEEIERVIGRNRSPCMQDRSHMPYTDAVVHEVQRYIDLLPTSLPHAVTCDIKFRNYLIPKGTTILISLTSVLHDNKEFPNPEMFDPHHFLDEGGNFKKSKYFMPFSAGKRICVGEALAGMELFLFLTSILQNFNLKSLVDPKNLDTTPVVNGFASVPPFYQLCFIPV
A further data set deals with Pgp brain pump (Homo sapiens, UniProt P08183). Type of data set: in vitro ADME. The following applies: not told.
Pgp brain pump, sequence (P08183 whole entry): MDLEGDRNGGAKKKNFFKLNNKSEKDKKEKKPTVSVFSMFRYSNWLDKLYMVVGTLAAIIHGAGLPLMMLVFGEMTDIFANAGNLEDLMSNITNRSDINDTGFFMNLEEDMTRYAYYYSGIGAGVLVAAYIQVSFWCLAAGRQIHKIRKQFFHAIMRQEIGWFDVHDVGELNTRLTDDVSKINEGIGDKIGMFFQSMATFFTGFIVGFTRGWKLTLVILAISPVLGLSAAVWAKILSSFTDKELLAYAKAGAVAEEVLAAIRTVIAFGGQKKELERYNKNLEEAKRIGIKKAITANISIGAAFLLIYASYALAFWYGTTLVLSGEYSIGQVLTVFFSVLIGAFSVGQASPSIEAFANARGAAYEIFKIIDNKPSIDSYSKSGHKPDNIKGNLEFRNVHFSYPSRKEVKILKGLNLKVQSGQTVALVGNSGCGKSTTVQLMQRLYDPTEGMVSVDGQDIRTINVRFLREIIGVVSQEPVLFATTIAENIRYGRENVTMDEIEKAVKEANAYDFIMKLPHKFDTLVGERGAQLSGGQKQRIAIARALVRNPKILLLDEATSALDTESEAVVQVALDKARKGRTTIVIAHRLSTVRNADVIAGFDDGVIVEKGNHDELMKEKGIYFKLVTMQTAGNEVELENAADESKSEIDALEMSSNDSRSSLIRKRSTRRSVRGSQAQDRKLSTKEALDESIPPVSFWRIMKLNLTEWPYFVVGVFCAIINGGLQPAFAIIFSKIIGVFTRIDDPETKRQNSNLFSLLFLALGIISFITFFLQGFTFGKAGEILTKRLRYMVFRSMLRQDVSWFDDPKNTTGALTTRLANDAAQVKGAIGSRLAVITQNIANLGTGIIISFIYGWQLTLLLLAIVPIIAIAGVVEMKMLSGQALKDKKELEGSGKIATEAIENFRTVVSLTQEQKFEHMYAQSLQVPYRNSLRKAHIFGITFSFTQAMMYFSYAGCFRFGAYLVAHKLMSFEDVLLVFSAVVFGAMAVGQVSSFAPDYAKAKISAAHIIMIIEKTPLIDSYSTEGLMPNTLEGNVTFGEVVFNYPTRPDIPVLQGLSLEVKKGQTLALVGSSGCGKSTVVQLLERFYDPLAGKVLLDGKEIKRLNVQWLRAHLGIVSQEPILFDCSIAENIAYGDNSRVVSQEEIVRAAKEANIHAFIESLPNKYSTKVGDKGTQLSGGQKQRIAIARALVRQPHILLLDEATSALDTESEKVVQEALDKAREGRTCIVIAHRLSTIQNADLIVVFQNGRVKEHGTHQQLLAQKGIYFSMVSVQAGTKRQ
Data set [5] is classed as physicochemical. An excerpt:
One aspect of the present invention relates to novel salt forms of (R)-3-((E)-2-(pyrrolidin-3-yl)vinyl)-5-(tetrahydropyran-4-yloxy)pyridine. […] However, the free base may react with both inorganic and organic acids to make acid addition salts that have physical properties that are advantageous for the preparation of pharmaceutical compositions such as crystallinity, water solubility, and stability toward chemical degradation.

In the next data set the target is α4β2 (Homo sapiens, UniProt P17787+P43681). Nature of the data set: Calcium flux assay, SH-EP1/human α4β2 cells. Type of data set: cell-based. Set-up: expressed in transfected cells; host or cells: SH-EP1. The text has this:
Cellular efficacy: The aim of these studies was to determine functional activity of (R)-3-((E)-2-(pyrrolidin-3-yl)vinyl)-5-(tetrahydropyran-4-yloxy)pyridine or a salt thereof at human recombinant α4β2 receptors.

T3 sequence (P02708 21-457): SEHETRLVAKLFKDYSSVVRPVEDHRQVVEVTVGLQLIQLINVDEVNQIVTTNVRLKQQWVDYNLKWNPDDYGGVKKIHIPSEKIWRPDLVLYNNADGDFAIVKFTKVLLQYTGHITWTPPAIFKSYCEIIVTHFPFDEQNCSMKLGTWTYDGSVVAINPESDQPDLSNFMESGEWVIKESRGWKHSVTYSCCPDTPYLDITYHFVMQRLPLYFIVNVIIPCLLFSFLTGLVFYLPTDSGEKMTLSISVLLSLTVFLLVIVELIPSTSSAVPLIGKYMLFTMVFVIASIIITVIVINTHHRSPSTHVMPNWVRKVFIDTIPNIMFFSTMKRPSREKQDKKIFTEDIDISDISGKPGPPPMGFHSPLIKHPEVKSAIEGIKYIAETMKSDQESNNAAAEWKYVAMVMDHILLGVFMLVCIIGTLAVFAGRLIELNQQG
T3 sequence (P11230 24-501 partner): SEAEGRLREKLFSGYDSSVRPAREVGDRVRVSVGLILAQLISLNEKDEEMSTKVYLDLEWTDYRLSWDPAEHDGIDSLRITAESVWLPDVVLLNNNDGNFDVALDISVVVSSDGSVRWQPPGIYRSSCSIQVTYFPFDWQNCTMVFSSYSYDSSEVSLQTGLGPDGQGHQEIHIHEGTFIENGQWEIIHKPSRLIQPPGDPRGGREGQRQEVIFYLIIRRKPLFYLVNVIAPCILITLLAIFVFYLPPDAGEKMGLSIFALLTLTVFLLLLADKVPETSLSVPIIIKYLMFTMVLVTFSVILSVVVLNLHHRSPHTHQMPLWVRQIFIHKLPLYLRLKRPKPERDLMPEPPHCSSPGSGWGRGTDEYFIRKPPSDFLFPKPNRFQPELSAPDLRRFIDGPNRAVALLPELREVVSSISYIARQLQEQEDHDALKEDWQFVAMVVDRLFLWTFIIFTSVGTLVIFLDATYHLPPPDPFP
T3 sequence (P07510 23-517): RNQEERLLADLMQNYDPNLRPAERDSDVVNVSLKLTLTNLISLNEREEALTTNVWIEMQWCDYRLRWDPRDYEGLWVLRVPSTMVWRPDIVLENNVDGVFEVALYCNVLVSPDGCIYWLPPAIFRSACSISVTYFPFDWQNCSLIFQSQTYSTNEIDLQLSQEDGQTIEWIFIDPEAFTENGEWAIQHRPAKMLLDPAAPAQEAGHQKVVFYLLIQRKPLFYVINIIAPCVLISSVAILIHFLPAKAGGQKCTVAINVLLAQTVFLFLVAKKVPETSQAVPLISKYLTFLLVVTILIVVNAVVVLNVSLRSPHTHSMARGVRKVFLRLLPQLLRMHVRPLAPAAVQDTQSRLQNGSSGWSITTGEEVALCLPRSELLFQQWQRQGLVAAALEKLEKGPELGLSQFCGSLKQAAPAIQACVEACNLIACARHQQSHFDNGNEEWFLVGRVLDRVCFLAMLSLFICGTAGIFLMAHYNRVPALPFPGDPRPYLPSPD
T3 sequence (Q07001 22-517): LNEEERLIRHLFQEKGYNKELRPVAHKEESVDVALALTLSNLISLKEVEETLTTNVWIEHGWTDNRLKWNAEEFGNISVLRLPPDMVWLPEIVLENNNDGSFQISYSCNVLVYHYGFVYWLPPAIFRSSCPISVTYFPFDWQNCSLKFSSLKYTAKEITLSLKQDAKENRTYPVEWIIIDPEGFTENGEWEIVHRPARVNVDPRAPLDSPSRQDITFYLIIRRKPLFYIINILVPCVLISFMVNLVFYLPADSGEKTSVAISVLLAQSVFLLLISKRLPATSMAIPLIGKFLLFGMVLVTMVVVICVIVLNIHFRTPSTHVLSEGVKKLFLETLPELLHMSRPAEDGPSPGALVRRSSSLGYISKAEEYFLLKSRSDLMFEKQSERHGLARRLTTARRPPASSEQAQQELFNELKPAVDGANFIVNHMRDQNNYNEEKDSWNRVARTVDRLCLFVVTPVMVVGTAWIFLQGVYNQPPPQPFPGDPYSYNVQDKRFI
α4β2, sequence (P43681 29-627 limits assumed): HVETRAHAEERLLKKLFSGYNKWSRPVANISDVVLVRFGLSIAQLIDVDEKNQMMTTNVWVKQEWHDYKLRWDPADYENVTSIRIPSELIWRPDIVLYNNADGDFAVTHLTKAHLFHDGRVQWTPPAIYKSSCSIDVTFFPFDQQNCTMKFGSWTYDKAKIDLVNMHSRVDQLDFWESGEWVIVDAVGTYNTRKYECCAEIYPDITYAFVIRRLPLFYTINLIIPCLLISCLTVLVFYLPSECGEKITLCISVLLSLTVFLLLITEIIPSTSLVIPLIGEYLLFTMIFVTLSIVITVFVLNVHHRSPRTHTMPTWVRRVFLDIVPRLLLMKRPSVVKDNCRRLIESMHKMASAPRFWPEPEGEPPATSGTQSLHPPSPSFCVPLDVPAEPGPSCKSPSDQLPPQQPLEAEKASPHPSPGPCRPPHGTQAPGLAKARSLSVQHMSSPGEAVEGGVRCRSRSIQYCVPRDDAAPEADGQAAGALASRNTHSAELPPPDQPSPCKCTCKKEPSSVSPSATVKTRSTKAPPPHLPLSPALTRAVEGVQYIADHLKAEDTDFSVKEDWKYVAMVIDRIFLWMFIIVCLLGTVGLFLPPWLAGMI
α4β2, sequence (P17787 26-502): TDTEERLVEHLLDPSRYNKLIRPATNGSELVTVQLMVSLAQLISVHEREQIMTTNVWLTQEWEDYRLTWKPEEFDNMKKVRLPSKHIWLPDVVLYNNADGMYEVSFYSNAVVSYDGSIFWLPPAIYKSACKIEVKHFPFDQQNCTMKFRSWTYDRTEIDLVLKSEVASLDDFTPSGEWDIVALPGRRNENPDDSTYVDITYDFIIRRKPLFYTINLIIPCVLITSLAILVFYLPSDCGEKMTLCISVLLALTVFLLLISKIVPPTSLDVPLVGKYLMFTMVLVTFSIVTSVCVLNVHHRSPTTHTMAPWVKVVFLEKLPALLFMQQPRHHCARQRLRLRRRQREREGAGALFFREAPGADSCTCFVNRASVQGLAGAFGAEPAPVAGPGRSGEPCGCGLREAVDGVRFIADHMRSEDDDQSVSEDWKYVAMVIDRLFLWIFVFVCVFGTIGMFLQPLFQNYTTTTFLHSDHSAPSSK
T1 sequence (P43681 29-627 limits assumed): as the sequence (P43681 29-627 limits assumed) above
T1 sequence (P17787 26-502): as the sequence (P17787 26-502) above

Regarding `C(=C\[C@H]1CCNC1)/c1cncc(OC2CCOCC2)c1` [Compound A, (R)-3-((E)-2-(pyrrolidin-3-yl)vinyl)-5-(tetrahydropyran-4-yloxy)pyridine], the Ki in data set [1] worked out at 2 nM; in data set [2] it was 3400 nM. For the same compound, the EC50 in data set [3] worked out at 13000 nM; at α4β2, 100 nM. Besides, the “Human (TE671/RD) muscle Emax (Ca flux)” value in data set [3] (TE-671 cells) is on record as “μM, 37%”. Moreover, the Emax in data set [3] (TE-671 cells, read-out: Human (TE671/RD) muscle Emax (Ca flux)) was 37%; at α4β2 (SH-EP1, read-out: Human recombinant (SH-EP 1) α4β2 Emax (Ca flux)), 76%. Also, the “RAM effect on scopolamine-induced cognitive deficits” value is “overcomes scopolamine induced deficits” in data set [4] and “able to reverse scopolamine-induced cognitive deficits” in data set [4] (listed as (R)-3-((E)-2-(Pyrrolidin-3-yl)vinyl)-5-(tetrahydropyran-4-yloxy)pyridine). Besides, on CYP2C9, the “time-dependent inhibition of CYP2C9” value was “no evidence of time-dependent inhibition”. Further, at Pgp brain pump, the Pgp substrate result is given as “substrate for Pgp brain pump”. The water solubility result in data set [5] was “limited water solubility”. The “Human recombinant (SH-EP 1) α4β2 Emax (Ca flux)” value on α4β2 (in relation to 10 μM nicotine, 24-h incubation at 29° C.) is recorded as “μM, 76%”.

These data come from US8153821B2, “Compounds” (priority 2008, dated 2012).
